Test results from patent publication US11559530B2, “Oral testosterone undecanoate therapy” (Lipocine Inc., priority 2016, dated 2023).

Assay: Clinical study of oral TU testosterone therapy in hypogonadal males: serum testosterone Cavg and Cmax responder analysis
Assay type: in vivo, human
Conditions: for Cavg >300 ng/dL ≥75% patients / Cavg >300 ng/dL ≥80% patients / Cmax > 1500 ng/dL <15% patients / Cmax > 1500 ng/dL <20% patients / Cmax > 1800 ng/dL <5% patients / Cmax > 1800 ng/dL <10% patients / Cmax > 2500 ng/dL <2% patients / Cmax > 2500 ng/dL none of patients: with food
Procedure: The dosage form from Example B of Composition 4 with dosing regimen (Regimen #9-16) of dosing category BID-equal dose with daily dose range 150-600 mg were used for a Clinic Study of Testosterone Therapy for hypogonadal males.
The clinical study was a randomized double-blind, placebo-controlled dose escalating study of the safety, efficacy, tolerability, and pharmacokinetics of testosterone therapy in hypogonadal males. This clinic study was a single and multiple, ascending-dose study that was designed to determine the optimal starting, titration (if appropriate), or single fixed dose for safety and efficacy targeted by the US FDA. The study also verified the time for testosterone levels to reach steady state and identified a suitable fixed dose dosing regimen that satisfies an unmet need for safety and efficacy for oral TT.
This study was carried out with conditions of a single-center, randomized, double-blind, placebo-controlled, ascending multiple-dose, and serial-group in adult hypogonadal male subjects. The objectives of this study were: • a) To assess the safety, efficacy, and tolerability of escalating single and multiple oral doses of TU dosage forms in hypogonadal males • b) To determine the pharmacokinetics (PK) of testosterone (T), DHT, TU, DHTU, and estradiol (E2) after single and multiple oral doses of TU dosage forms in hypogonadal males • C) To identify a fixed dose dosing regimen satisfying US FDA targets, without needing to titrate, for restoring serum T levels in hypogonadal males to the normal T range.
The dosing regimen for this clinical study ranged from 150 mg daily dose (75 mg BID dose) to 600 mg daily dose (300 mg BID dose). Observed pharmacokinetic parameters (T, DHT, TU, DHTU, and E2) after single and multiple oral doses of TU dosage forms in the patients were recorded in connection with each daily dose listed in the report.
The overall analyzed results of this clinical study were plotted according to % of patients for safety (Cmax<1,500 ng/dL) and efficacy (Cavg>300 ng/dL) with a variety of dosing regimens. Note that only doses that were multiples of 75 mg were tested in the clinical study, the results predicted for the other doses are estimated from these values.

[1] = Regimen #14, BID-equal dose (AM/PM), TU 250/250 mg
[2] = Regimen #15, BID-equal dose (AM/PM), TU 265/265 mg
[3] = Regimen #16, BID-equal dose (AM/PM), TU 300/300 mg
[4] = Regimen #17, BID-different dose (AM/PM), TU 75/225 mg
[5] = Regimen #18, BID-different dose (AM/PM), TU 75/300 mg
[6] = Regimen #19, BID-different dose (AM/PM), TU 150/225 mg
[7] = Regimen #20, BID-different dose (AM/PM), TU 225/150 mg
[8] = Regimen #21, BID-different dose (AM/PM), TU 225/300 mg
[9] = Regimen #22, BID-different dose (AM/PM), TU 300/75 mg
[10] = Regimen #23, BID-different dose (AM/PM), TU 300/150 mg
[11] = Regimen #24, BID-different dose (AM/PM), TU 300/225 mg

SMILES: CCCCCCCCCCC(=O)O[C@H]1CC[C@H]2[C@@H]3CCC4=CC(=O)CC[C@]4(C)[C@H]3CC[C@]12C [TU, testosterone undecanoate]
- Cavg >300 ng/dL ≥75% patients [1]: Yes
- Cavg >300 ng/dL ≥80% patients [1]: Yes
- Cmax > 1500 ng/dL <15% patients [1]: No
- Cmax > 1500 ng/dL <20% patients [1]: Yes
- Cmax > 1800 ng/dL <5% patients [1]: Yes
- Cmax > 1800 ng/dL <10% patients [1]: Yes
- Cmax > 2500 ng/dL <2% patients [1]: Yes
- Cmax > 2500 ng/dL none of patients [1]: Yes
- Cavg >300 ng/dL ≥75% patients [2]: Yes
- Cavg >300 ng/dL ≥80% patients [2]: Yes
- Cmax > 1500 ng/dL <15% patients [2]: No
- Cmax > 1500 ng/dL <20% patients [2]: Yes
- Cmax > 1800 ng/dL <5% patients [2]: No
- Cmax > 1800 ng/dL <10% patients [2]: Yes
- Cmax > 2500 ng/dL <2% patients [2]: Yes
- Cmax > 2500 ng/dL none of patients [2]: No
- Cavg >300 ng/dL ≥75% patients [3]: Yes
- Cavg >300 ng/dL ≥80% patients [3]: Yes
- Cmax > 1500 ng/dL <15% patients [3]: No
- Cmax > 1500 ng/dL <20% patients [3]: No
- Cmax > 1800 ng/dL <5% patients [3]: No
- Cmax > 1800 ng/dL <10% patients [3]: Yes
- Cmax > 2500 ng/dL <2% patients [3]: Yes
- Cmax > 2500 ng/dL none of patients [3]: No
- Cavg >300 ng/dL ≥75% patients [4]: No
- Cavg >300 ng/dL ≥80% patients [4]: No
- Cmax > 1500 ng/dL <15% patients [4]: Yes
- Cmax > 1500 ng/dL <20% patients [4]: Yes
- Cmax > 1800 ng/dL <5% patients [4]: Yes
- Cmax > 1800 ng/dL <10% patients [4]: Yes
- Cmax > 2500 ng/dL <2% patients [4]: Yes
- Cmax > 2500 ng/dL none of patients [4]: Yes
- Cavg >300 ng/dL ≥75% patients [5]: No
- Cavg >300 ng/dL ≥80% patients [5]: No
- Cmax > 1500 ng/dL <15% patients [5]: Yes
- Cmax > 1500 ng/dL <20% patients [5]: Yes
- Cmax > 1800 ng/dL <5% patients [5]: No
- Cmax > 1800 ng/dL <10% patients [5]: Yes
- Cmax > 2500 ng/dL <2% patients [5]: Yes
- Cmax > 2500 ng/dL none of patients [5]: No
- Cavg >300 ng/dL ≥75% patients [6]: No
- Cavg >300 ng/dL ≥80% patients [6]: No
- Cmax > 1500 ng/dL <15% patients [6]: Yes
- Cmax > 1500 ng/dL <20% patients [6]: Yes
- Cmax > 1800 ng/dL <5% patients [6]: Yes
- Cmax > 1800 ng/dL <10% patients [6]: Yes
- Cmax > 2500 ng/dL <2% patients [6]: Yes
- Cmax > 2500 ng/dL none of patients [6]: Yes
- Cavg >300 ng/dL ≥75% patients [7]: Yes
- Cavg >300 ng/dL ≥80% patients [7]: No
- Cmax > 1500 ng/dL <15% patients [7]: Yes
- Cmax > 1500 ng/dL <20% patients [7]: Yes
- Cmax > 1800 ng/dL <5% patients [7]: Yes
- Cmax > 1800 ng/dL <10% patients [7]: Yes
- Cmax > 2500 ng/dL <2% patients [7]: Yes
- Cmax > 2500 ng/dL none of patients [7]: Yes
- Cavg >300 ng/dL ≥75% patients [8]: Yes
- Cavg >300 ng/dL ≥80% patients [8]: Yes
- Cmax > 1500 ng/dL <15% patients [8]: No
- Cmax > 1500 ng/dL <20% patients [8]: No
- Cmax > 1800 ng/dL <5% patients [8]: No
- Cmax > 1800 ng/dL <10% patients [8]: Yes
- Cmax > 2500 ng/dL <2% patients [8]: Yes
- Cmax > 2500 ng/dL none of patients [8]: No
- Cavg >300 ng/dL ≥75% patients [9]: No
- Cavg >300 ng/dL ≥80% patients [9]: No
- Cmax > 1500 ng/dL <15% patients [9]: No
- Cmax > 1500 ng/dL <20% patients [9]: Yes
- Cmax > 1800 ng/dL <5% patients [9]: No
- Cmax > 1800 ng/dL <10% patients [9]: Yes
- Cavg >300 ng/dL ≥75% patients [10]: Yes
- Cavg >300 ng/dL ≥80% patients [10]: Yes
- Cavg >300 ng/dL ≥75% patients [11]: Yes
- Cavg >300 ng/dL ≥80% patients [11]: Yes
- US FDA T level targets for safety and efficacy (fixed dose, 430 mg TU daily (215 mg BID-equal) to 480 mg TU daily (240 mg BID-equal)): can satisfy US FDA T level targets for safety and efficacy without titration
